Source: PMC3656107, “Polymorphisms in the F8 Gene and MHC-II Variants as Risk Factors for the Development of Inhibitory Anti-Factor VIII Antibodies during the Treatment of Hemophilia A: A Computational Assessment” (PLoS Computational Biology, 2013)
Where “and” joins values, the source holds several entries; their conditions need not be identical. Identical values can stand only once.

Columns and labels:
MHC-II DRB1*03:01 [1] = target: T1, MHC-II DRB1*03:01 (Homo sapiens, UniProt P01903+P01911, A100K/A102G/A103R/A169T/F55Y/I96L/K41T/L162R/M171V/P40S/Q125H/Q178H/Q39Y/R42S/S66N/T106N/T262R/W38E/Y61H); assay: Cell-free REVEAL class II binding assay; conditions: signal of test peptide as percentage of allele-specific positive control peptide, fluorescence, conformation-specific monoclonal antibody
T1 sequence (P01903 26-254 limits assumed, other chains not shown): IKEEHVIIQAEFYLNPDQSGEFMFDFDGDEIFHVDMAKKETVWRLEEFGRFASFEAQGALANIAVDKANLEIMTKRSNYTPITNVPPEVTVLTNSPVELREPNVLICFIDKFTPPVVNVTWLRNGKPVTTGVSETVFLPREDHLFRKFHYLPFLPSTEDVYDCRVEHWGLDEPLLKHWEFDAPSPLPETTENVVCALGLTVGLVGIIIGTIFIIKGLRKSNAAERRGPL
Description: (§1) We used a proprietary high throughput, REVEAL binding assay (ProImmune, www.proimmune.com) to estimate the binding of individual test peptides to the following MHC-II variants: DRB1*03:01, DRB1*04:01, DRB1*07:01, DRB1*11:01, DRB1*15:01 and DRB1*15:03 [28]. Detection of a peptide binding to each MHC-II protein is based on the presence or absence of the native conformation of the MHC-peptide complex. The peptide-MHC-II complex is detected by an increase in a fluorescence signal due to the binding of a specific monoclonal antibody. Each test-peptide is given a score relative to a positive control peptide, which is a known T-cell epitope for that MHC-II molecule. The score is reported quantitatively as a percentage of the signal generated by the test peptide compared with the positive control peptide. Assay performance is evaluated by including in each set of measurements an intermediate control peptide which is known to bind the MHC-II molecule but with a lower affinity than the positive control peptide. Note that the positive control peptide used to determine the binding score is different from the positive control peptides depicted in the figures, which are known T-cell epitopes identified in the FVIII molecule.

MHC-II DRB1*04:01 [2] = target: T2, MHC-II DRB1*04:01 (Homo sapiens, UniProt P01903+P01911, A100K/A169T/F76Y/I96L/K127E/L162R/M171V/N62H/P40V/Q125Y/R42H/S133A/S149N/S66Y/V115G/V209L/W38E); assay: Cell-free REVEAL class II binding assay; conditions: signal of test peptide as percentage of allele-specific positive control peptide, fluorescence, conformation-specific monoclonal antibody
Description: as §1

MHC-II DRB1*07:01 [3] = target: T3, MHC-II DRB1*07:01 (Homo sapiens, UniProt P01903+P01911, A100R/A102G/A103Q/D57E/D86V/E43K/F76Y/K127E/L162R/M171V/P40G/Q125H/Q99D/R33Q/R42Y/R54Q/S133A/S66F/T210M/V115G/Y107V/Y59L/Y89S); assay: Cell-free REVEAL class II binding assay; conditions: signal of test peptide as percentage of allele-specific positive control peptide, fluorescence, conformation-specific monoclonal antibody
Description: as §1

MHC-II DRB1*11:01 [4] = target: T4, MHC-II DRB1*11:01 (Homo sapiens, UniProt P01903+P01911, A100R/A169T/A87E/I96F/K41T/L162R/M171V/P40S/Q125H/Q178H/Q39Y/Q99D/R42S/S66Y/T262R/V115G/W38E); assay: Cell-free REVEAL class II binding assay; conditions: signal of test peptide as percentage of allele-specific positive control peptide, fluorescence, conformation-specific monoclonal antibody
T4 sequence (P01903 26-254 limits assumed, other chains not shown): as above
Description: as §1

MHC-II DRB1*15:01 [5] = target: T5, MHC-II DRB1*15:01 (Homo sapiens, UniProt P01903+P01911); assay: Cell-free REVEAL class II binding assay; conditions: signal of test peptide as percentage of allele-specific positive control peptide, fluorescence, conformation-specific monoclonal antibody
T5 construct: purchased ProImmune
Description: as §1

MHC-II DRB1*15:03 [6] = target: T6, MHC-II DRB1*15:03 (Homo sapiens, UniProt P01903+P01911, Y59H); assay: Cell-free REVEAL class II binding assay; conditions: signal of test peptide as percentage of allele-specific positive control peptide, fluorescence, conformation-specific monoclonal antibody
T6 construct: purchased ProImmune
T6 sequence (P01903 26-254, other chains not shown): as the sequence (P01903 26-254 limits assumed, other chains not shown) above
Description: as §1

MHC-II DRB1*03:01 [7] = target: T1, MHC-II DRB1*03:01; assay: Cell-free REVEAL class II stability assay; conditions: half-life of peptide-MHC-II complex (h, capped at 120) x Binding Score / 100, conformational ELISA
Protocol: (§2) We measured the half-life of each peptide-MHC-II complex using REVEAL peptide-MHC affinity assays developed by ProImmune Ltd. (Oxford, UK). On-rates of peptides were measured over a 96-hr period at 10°C. A unique positive control peptide was used for each MHC-II allele. Samples of assembling peptide-MHC complexes were taken at defined time points and snap-frozen in liquid nitrogen prior to analysis. Assembly of peptide-MHC complexes was detected using a conformational ELISA involving an anti-HLA antibody. On-rates were calculated by fitting data to a one-phase association curve: [drawing 1] To determine the off-rates of the peptides, samples of dissociating complexes were taken at defined time points and frozen in liquid nitrogen prior to analysis. Percent denaturation of peptide-MHC complexes was also detected using a conformational ELISA. Off-rates were calculated by fitting data to a one-phase dissociation curve: [drawing 2] On- and off-rate half-life values (t1/2) were calculated from the rate constant (k) using the following equation: [drawing 3] To obtain a normalized stability score, the half-life values were multiplied by the Binding Score (see above) and divided by 100.

MHC-II DRB1*04:01 [8] = target: T2, MHC-II DRB1*04:01; assay: Cell-free REVEAL class II stability assay; conditions: half-life of peptide-MHC-II complex (h, capped at 120) x Binding Score / 100, conformational ELISA
Protocol: as §2

MHC-II DRB1*07:01 [9] = target: T3, MHC-II DRB1*07:01; assay: Cell-free REVEAL class II stability assay; conditions: half-life of peptide-MHC-II complex (h, capped at 120) x Binding Score / 100, conformational ELISA
Protocol: as §2

MHC-II DRB1*11:01 [10] = target: T4, MHC-II DRB1*11:01; assay: Cell-free REVEAL class II stability assay; conditions: half-life of peptide-MHC-II complex (h, capped at 120) x Binding Score / 100, conformational ELISA
Protocol: as §2

MHC-II DRB1*15:01 [11] = target: T5, MHC-II DRB1*15:01; assay: Cell-free REVEAL class II stability assay; conditions: half-life of peptide-MHC-II complex (h, capped at 120) x Binding Score / 100, conformational ELISA
Protocol: as §2

MHC-II DRB1*15:03 [12] = target: T6, MHC-II DRB1*15:03; assay: Cell-free REVEAL class II stability assay; conditions: half-life of peptide-MHC-II complex (h, capped at 120) x Binding Score / 100, conformational ELISA
Protocol: as §2

Sequence | Binding Score (MHC-II DRB1*03:01 [1]) | Binding Score (MHC-II DRB1*04:01 [2]) | Binding Score (MHC-II DRB1*07:01 [3]) | Binding Score (MHC-II DRB1*11:01 [4]) | Binding Score (MHC-II DRB1*15:01 [5]) | Binding Score (MHC-II DRB1*15:03 [6]) | Stability Index (MHC-II DRB1*03:01 [7]) | Stability Index (MHC-II DRB1*04:01 [8]) | Stability Index (MHC-II DRB1*07:01 [9]) | Stability Index (MHC-II DRB1*11:01 [10]) | Stability Index (MHC-II DRB1*15:01 [11]) | Stability Index (MHC-II DRB1*15:03 [12])
AHRTPMPKIQNVSSS [synthetic wild type FVIII 15 mer peptide, region of ns-SNP R776G] | 0.0% | 1.3% | 0.0% | 0.2% | 0.0% | 0.4% | 0.0 | 0.1 | 0.0 | 0.0 | 0.1 | 0.1
ASEGAEYDDQTSQRE [synthetic wild type FVIII 15 mer peptide] | 0.0% | 0.0% | 0.0% | 0.0% | 0.0% | 0.0% | 0.0 | 0.0 | 0.0 | 0.0 | 0.0 | 0.0
AVGVSYWKASEGAEY [synthetic wild type FVIII 15 mer peptide] | 0.0% | 2.0% | 0.0% | 0.3% | 17.0% | 0.1% | 0.0 | 0.4 | 0.0 | 0.0 | 1.0 | 0.0
AWRPQVNNPKEWLQV [synthetic wild type FVIII 15 mer peptide] | 0.0% | 17.7% | 0.0% | 0.1% | 0.5% | 0.2% | 0.0 | 10.2 | 0.0 | 0.0 | 0.6 | 0.1
DGAYAPVLQDFRSLN [synthetic wild type FVIII 15 mer peptide, region of ns-SNP D1241E] | 11.1% | 0.7% | 0.1% | 0.2% | 0.0% | 0.1% | 2.0 | 0.1 | 0.0 | 0.0 | 0.0 | 0.0
EWLQVDFQKTMKVTG [synthetic wild type FVIII 15 mer peptide, region of ns-SNP M2238V] | 57.0% and 65.6% | 26.4% and 28.1% | 0.1% and 0.2% | 157.4% and 152.7% |  | 24.1% and 17.6% | 33.3 and 31.3 | 4.8 and 5.4 | 0.1 and 0.2 | 16.4 and 16.2 |  | 2.3 and 1.6
NPPIIARYIRLHPTH [synthetic wild type FVIII 15 mer peptide] | 0.4% | 5.0% | 0.2% | 76.5% |  | 15.2% | 0.0 | 3.1 | 0.2 | 6.3 | 1374.9 | 18.2
PKEWLQVDFQKTMKV [synthetic wild type FVIII 15 mer peptide, region of ns-SNP M2238V] | 36.8% and 60.5% | 5.1% and 4.1% | 0.0% | 8.6% and 4.2% | 0.4% and 0.9% | 0.0% |  | 0.3 and 0.2 | 0.0 | 0.3 and 0.2 |  | 0.0
